# Test results from ChEMBL document CHEMBL5356986, “Research status of indole-modified natural products” (RSC Med Chem, 2023).
# Key:
# A549 [1] = assay: Antiproliferative activity against human A549 cells assessed as reduction in cell growth incubated for 72 hrs by MTT assay; assay type: functional, cell-based; details: A549, 72 h
# Alpha glucosidase = Alpha glucosidase (Homo sapiens, UniProt O43451+P10253+P14410+Q2M2H8); assay: Inhibition of Alpha-glucosidase (unknown origin) using p-nitrophenyl glucopyranoside as substrate by UV based microplate reader analysis; assay type: protein assay
# [2] = Inhibition of hyaluronidase (unknown origin); parameters: species or system Homo sapiens
# [3] = system: Mycobacterium tuberculosis; assay: Antimycobacterial activity against Mycobacterium tuberculosis H37Rv assessed as reduction in bacterial cell growth; assay type: functional
# MCF7 [4] = assay: Antiproliferative activity against human MCF7 cells assessed as inhibition of cell growth by CCK8 assay; assay type: functional, cell-based
# HeLa [5] = assay: Cytotoxicity against human HeLa cells assessed as cell growth inhibition incubated for 24 hrs by MTT assay; assay type: functional, cell-based
# HepG2 [6] = assay: Antiproliferative activity against human HepG2 cells assessed as reduction in cell viability incubated for 48 hrs by MTT assay; assay type: functional, cell-based; details: HepG2, 48 h
# HepG2 [7] = assay: Cytotoxicity against human HepG2 cells by MTT assay; assay type: functional, cell-based
# Nannizzia gypsea = assay: Antifungal activity against Microsporum gypseum assessed as fungal growth inhibition; assay type: functional
# Arthrodermataceae = assay: Antibacterial activity against Arthrodermataceae; assay type: functional
# [8] = system: Trichophyton mentagrophytes; assay: Antifungal activity against Trichophyton mentagrophytes assessed as inhibition of microbial growth; assay type: functional
# [9] = system: Trichophyton mentagrophytes; assay: Antifungal activity against Trichophyton mentagrophytes assessed as inhibition of fungal growth incubated for 48 hrs by serial plate dilution method; assay type: functional
# MDA-MB-231 = assay: Antiproliferative activity against human MDA-MB-231 cells assessed as reduction in cell viability incubated for 48 hrs by MTT assay; assay type: functional, cell-based; details: MDA-MB-231, 48 h
# MDA-MB-453 = assay: Antiproliferative activity against human MDA-MB-453 cells assessed as inhibition of cell growth incubated for 48 hrs by MTT assay; assay type: functional, cell-based; details: MDA-MB-453, 48 h
# PC-3 = assay: Antiproliferative activity against human PC-3 cells assessed as reduction in cell growth measured after 24 hrs by MTT assay; assay type: functional, cell-based; details: PC-3, 24 h
# HeLa [10] = assay: Cytotoxicity against human HeLa cells assessed as reduction in cell viability incubated for 48 hrs by MTT assay; assay type: functional, cell-based
# Toxoplasma gondii [11] = assay: Antiparasitic activity against Toxoplasma gondii tachyzoites infected in human HeLa cells measured after 24 hrs by MTT assay; assay type: functional, organism-based
# A549 [12] = assay: Antiproliferative activity against human A549 cells assessed as reduction in cell viability by MTT assay; assay type: functional, cell-based
# MCF7 [13] = assay: Cytotoxicity against human MCF7 cells assessed as reduction in cell viability after 48 hrs by SRB assay; assay type: functional, cell-based; details: MCF7, 48 h
# HCT-116 = assay: Cytotoxicity against human HCT-116 cells assessed as reduction in cell viability by MTS assay; assay type: functional, cell-based
# Bel-7402 = assay: Cytotoxicity against human Bel-7402 cells assessed as reduction in cell viability; assay type: functional, cell-based
# MCF7 [14] = assay: Cytotoxicity against human MCF7 cells assessed as reduction in cell viability by MTS assay; assay type: functional, cell-based
# Leishmania donovani = assay: Antileishmanial activity against Leishmania donovani assessed as parasite growth inhibition; assay type: functional, organism-based
# [15] = Antioxidant activity assessed as DPPH radical scavenging activity; assay type: functional
# A549 [16] = assay: Cytotoxicity against human A549 cells assessed as reduction in cell viability by MTS assay; assay type: functional, cell-based
# Hep 3B2 = assay: Cytotoxicity against human Hep3B cells assessed as cell growth inhibition by MTT colorimetric assay; assay type: functional, cell-based
# HepG2 [17] = assay: Cytotoxicity against human HepG2 cells assessed as reduction in cell viability by MTT assay; assay type: functional
# SMMC-7721 = assay: Cytotoxicity against human SMMC-7721 cells assessed as reduction in cell viability by SRB assay; assay type: functional, cell-based
# HeLa [18] = assay: Antiproliferative activity against human HeLa cells assessed as inhibition of cell growth incubated for 72 hrs by MTT assay; assay type: functional, cell-based
# Toxoplasma gondii [19] = assay: Antiparasitic activity against Toxoplasma gondii tachyzoites infected in human HeLa cells; assay type: functional, organism-based; details: Toxoplasma gondii, HeLa
# Caco-2 = assay: Antiproliferative activity against human Caco-2 cells incubated for 96 hrs by MTT assay; assay type: functional, cell-based; details: Caco-2, 96 h
compound,measurement,setting,value
CCOc1c(Br)cc(/C=C/C(=O)c2cc3ccccc3n2C)cc1OC,IC50,A549 [1],4.3 µM
C=C(C)[C@@H](C)CC[C@@H](C)C1CC[C@@]2(C)[C@@H]3CC[C@H]4[C@H](C)c5[nH]c6ccccc6c5C[C@@]45C[C@@]35CC[C@]12C (some centres undefined),IC50,Alpha glucosidase,115.2 µM
CC1(C)CC[C@]2(C(=O)O)CC[C@]3(C)C(=CC[C@@H]4[C@@]5(C)Cc6c([nH]c7c(F)cc(F)cc67)C(C)(C)[C@@H]5CC[C@]43C)[C@@H]2C1,IC50,[2],9.97 µM
O=C(c1ccncc1)n1nc(-c2c[nH]c3ccccc23)cc1-c1cc2ccccc2oc1=O,MIC,[3],2.02 µM
C[C@]12CC[C@H]3[C@]4(C=C[C@]5(C[C@@H](O)CC[C@]35C)OO4)[C@@H]1CC/C2=N\N=C1/C(=O)Nc2ccc(Cl)cc21,IC50,MCF7 [4],9.05 µM
same,IC50,HeLa [5],5.69 µM
same,IC50,HepG2 [6],7.97 µM
CC(=O)Oc1ccc(C(=O)/C=C/c2ccc3c(ccn3C)c2)c2c1C=CC(C)(C)O2,IC50,HepG2 [7],0.22 µM
COc1ccc(/C=C/C(=O)c2c[nH]c3ccccc23)cc1,MIC,Nannizzia gypsea,4 µg/mL
same,MIC,Arthrodermataceae,8 µg/mL
same,MIC,[8],8 µg/mL
CCOc1c(Br)cc(/C=C/C(=O)c2c[nH]c3ccccc23)cc1OC,MIC,Nannizzia gypsea,0.25 µg/mL
same,MIC,[9],2 µg/mL
same,MIC,[8],4 µg/mL
C[C@]12CC[C@H](OC(=O)[C@H](N)c3c[nH]c4ccccc34)C[C@H]1CC[C@@H]1[C@@H]2[C@H](N)C(=O)[C@]2(C)[C@@H](c3ccc(=O)oc3)CC[C@]12O,IC50,MCF7 [4],11.6 µM
same,IC50,MDA-MB-231,0.027 µM
same,IC50,MDA-MB-453,0.0106 µM
COc1ccc(/C=C/C(=O)/C=C/c2c[nH]c3ccccc23)c(OC)c1OC,IC50,PC-3,3.15 µM
same,IC50,HeLa [10],3.31 µM
C[C@@H]1CC[C@H]2[C@@H](C)C(OC(=O)c3cc4cc(Cl)ccc4[nH]3)O[C@@H]3O[C@@]4(C)CC[C@@H]1[C@]32OO4 (some centres undefined),IC50,Toxoplasma gondii [11],85.3 µM
same,IC50,A549 [12],6.17 µM
same,IC50,MCF7 [13],5.25 µM
"C=C1C(=O)[C@]23[C@H](OC(=O)c4cc5cc(OC)ccc5[nH]4)[C@H]1CC[C@H]2[C@@]12COC3(O)[C@@H](O)[C@@H]1C(C)(C)CC[C@@H]2O (single isomer, unassigned)",IC50,HCT-116,0.81 µM
same,IC50,Bel-7402,0.83 µM
same,IC50,MCF7 [14],0.39 µM
O=C(CCC(c1ccccc1)c1c[nH]c2ccccc12)c1c(O)c2ccccc2oc1=O (centres undefined),IC50,Leishmania donovani,95.5 µg/mL
same,IC50,[15],12.4 µM
CC(C)=CCC[C@](C)(O)[C@H]1CC[C@@](C)([C@H]2CC[C@H]3[C@H]2CC[C@H]2C(C)(C)c4[nH]c5ccc(Br)cc5c4C[C@]32C)O1,IC50,A549 [16],13.4 µM
CCOC(=O)c1ccc2c(c1)c1c(n2CCN2CCNCC2)-c2cc(C(C)C)ccc2[C@@]2(C)CCC[C@@](C)(C(=O)OC)[C@H]12,IC50,Hep 3B2,< 0.73 µM
same,IC50,HepG2 [17],0.51 µM
same,IC50,SMMC-7721,< 1.39 µM
COc1cc(C(=O)/C=C/c2c[nH]c3ccccc23)cc([Se]C)c1OC,IC50,HeLa [18],0.059 µM
same,IC50,Toxoplasma gondii [19],0.023 µM
COc1cc(/C=C/C(=O)/C=C/c2c[nH]c3ccccc23)ccc1O,IC50,Caco-2,8 µM
C[C@]12CC[C@H]3[C@@H](CC=C4C[C@@H](O)CC[C@@H]43)[C@@H]1CC/C2=N\N=C\c1c[nH]c2ccccc12,IC50,MCF7 [4],1.06 µM
same,IC50,MDA-MB-231,0.00481 µM
same,IC50,MDA-MB-453,0.01 µM
O=C(CCC(c1c(Cl)cccc1Cl)c1c[nH]c2ccccc12)c1c(O)c2ccccc2oc1=O (centres undefined),IC50,Leishmania donovani,95 µg/mL
same,IC50,[15],13.5 µM
